The values below are quoted from earlier work in patent publication US20160128986A1, “METHODS AND COMPOSITIONS RELATED TO THE USE OF LOW HLB SURFACTANTS IN THE PRODUCTION OF SYNTHETIC NANOCARRIERS COMPRISING A RAPALOG” (Selecta Biosciences, Inc., priority 2014, published 2016).

The conditions of this data set: publicly available information.
Consider `CCCCCCCCCCCCCCCC(=O)O` [Palmitic Acid], for which the “HLB of Surfactant” value was 3.2. Regarding `CCCCCCCCO[C@@H]1O[C@H](CO)[C@@H](O)[C@H](O)[C@H]1O` [octyl β-D-glucopyranoside, Octyl β-D-glucopyranoside], the “HLB of Surfactant” value is 12.

Regarding “Polyethylene glycol hexadecyl ether [Brij 52]”, the “HLB of Surfactant” value was 5. Take “Polyethylene glycol oleyl ether [Brij 93]”: the “HLB of Surfactant” value is on record as 4.

As for Polysorbate 80, the “HLB of Surfactant” value is on record as 15. Sorbitan monolaurate [SPAN 20]: the “HLB of Surfactant” value is given as 8.6.

In the case of Sorbitan monooleate [SPAN 80], the “HLB of Surfactant” value is listed as 4.3.

As for Sorbitan monopalmitate [SPAN 40], the “HLB of Surfactant” value is given as 6.7. On to Sorbitan stearate [SPAN 60], for which the “HLB of Surfactant” value was 4.7.
